Reference: ChEMBL document CHEMBL1144809, “Synthesis and biological evaluation of histone deacetylase inhibitors that are based on FR235222: a cyclic tetrapeptide scaffold” (Bioorg Med Chem Lett, 2008)

Columns and labels:
BXPC-3 = test: Cytotoxicity against human BxPC3 cells at 5 uM; assay type: functional; details: read-out: GI
[1] = system: Histone deacetylase (Homo sapiens); test: Inhibition of HDAC at 200 uM relative to control

| SMILES | inhibition of growth at 5 µM (BXPC-3) [%] | inhibition [1] [%] |
| --- | --- | --- |
| CCC(=O)CCCCC[C@@H]1NC(=O)[C@H]2CCCCN2C(=O)[C@H]([C@@H](C)CC)NC(=O)[C@H](Cc2cn(OC)c3ccccc23)NC1=O [APICIDIN] | 98 | – |
| CC[C@@H]1NC(=O)[C@H](CCCNC(=N)N)NC(=O)[C@H]2CCCN2C(=O)[C@@H](Cc2ccccc2)NC1=O | 17 | 97 |
| CC[C@@H]1NC(=O)[C@H](CCCNC(=N)N)NC(=O)[C@H]2CCCCN2C(=O)[C@@H](Cc2ccccc2)NC1=O | 20 | 98 |
| CC[C@@H]1NC(=O)[C@H](CCCCNC(C)=O)NC(=O)[C@H]2CCCN2C(=O)[C@H](Cc2ccccc2)NC1=O | 38 | 38 |
| CC[C@@H]1NC(=O)[C@H](CCCNC(=N)N)NC(=O)[C@H]2CCCN2C(=O)[C@@H]2Cc3ccccc3CN2C1=O | 0 | 83 |
| CC[C@@H]1NC(=O)[C@H](CCCNC(=N)N)NC(=O)[C@H]2CCCN2C(=O)[C@H](Cc2ccccc2)NC1=O | 27 | 97 |
| CC[C@@H]1NC(=O)[C@H](CCCCNC(C)=O)NC(=O)[C@H]2CCCN2C(=O)[C@H](Cc2ccccc2)N(C)C1=O | 19 | 86 |
